According to the NIST ThermoML archive (doi:10.1016/j.jct.2005.03.013):
± gives the expanded uncertainty stated by the source.

Key:
[1] = for viscosity: 101.33 kPa, Liquid
[2] = molar heat capacity at constant pressure; conditions: 101.33 kPa, Liquid, Large sample (1 g) DSC

Row | viscosity ([1]; 283 K) [mPa·s] | viscosity ([1]; 293 K) [mPa·s] | viscosity ([1]; 298 K) [mPa·s] | viscosity ([1]; 303 K) [mPa·s] | viscosity ([1]; 313 K) [mPa·s] | viscosity ([1]; 323 K) [mPa·s] | viscosity ([1]; 333 K) [mPa·s] | viscosity ([1]; 343 K) [mPa·s] | SMILES | Glass transition temperature [1] [°C] | molar heat capacity at constant pressure ([2]; 298 K) [J/K/mol] | molar heat capacity at constant pressure ([2]; 323 K) [J/K/mol]
1 | 19610 ± 4800 | 5675 ± 1200 | 3173 ± 570 | 1986 ± 310 | 846 ± 110 | 405 ± 40 | 221 ± 17 | 130 ± 9 | CCOC(=O)c1ccc[n+](CC)c1.CCOS(=O)(=O)[O-] [3-(ethoxycarbonyl)-1-ethylpyridinium ethylsulfate] | -44 ± 3 | 513 ± 52 | 530 ± 54
2 | – | – | – | – | – | – | – | – | CCCCCCn1cc[n+](C)c1.[Br-] [3-hexyl-1-methyl-1H-imidazolium bromide] | -49 ± 4 | 344 ± 35 | 357 ± 36
